# Measured values as given in patent US6919464B1, “Synthetic derivatives of 21-butenyl and related spinosyns” (Dow AgroSciences LLC, priority 2001, dated 2005).
# Key:
# Format in all cases: in vivo
# [1] = system: Heliothis virescens; assay: Tobacco Budworm (Heliothis virescens) topical assay
# Protocol: An additional measure of the relative insecticidal activities of the compounds of the invention was generated by using a 1 ug/ul acetone solution of each compound applied at 1 ug/larva of laboratory-reared Heliothis virescens larvae (mean weight of 22 mg). Each compound was applied along the dorsum of each of six larvae. Treated larvae were then held for two days at 21° C., 60% RH in six-well plastic culture plates. Larvae were each supplied with a 1 cm^3 of agar-based lepidoptera diet for sustenance during the two-day post-exposure interval. Percent mortality was determined at the end of a two-day period.
# [2] = system: Aphis gossypii; assay: Cotton Aphid (Aphis gossypii) assay, spray on squash seedlings; conditions: rate 50 ppm, relative to plants sprayed with solvent only; for mortality at 50 ppm: Aphis gossypii, 72 h
# Protocol: Insecticidal activities of the compounds of the invention were also evaluated against cotton aphids (Aphis gossyppi) as follows. Summer crookneck squash seedlings at the expanded cotyledon stage are primed to a single cotyledon and infested with cotton aphids 16-24 hours before application of the test material by transfer of infested foliage cut from a stock colony. Immediately prior to spray application of the test material, the transfer foliage is removed from the squash plants. The test material is dissolved at 1 mg/ml in 90:10 acetone:alcohol, then diluted in water containing 0.05% Tween 20 (polyethylene (20) sorbitan monolaurate) to give test solution at a concentration of 50 ppm. The plants were sprayed with the test solution using an atomizing sprayer at 17 psi. Both surfaces of the cotyledons are covered until runnoff, and then allowed to dry. Activity of the compound was determined at three days after treatment. Activity was rated as a percent based on the number of aphids present in plants sprayed with solvent only.
# [3] = system: Heliothis virescens; assay: Tobacco Budworm (Heliothis virescens) feeding assay, cotton leaf-dip; conditions: second instar larvae
# Excerpt: To compare insecticidal activities of compounds of the invention against second instar larval Heliothis virescens leaf-dip bioassay was used. Cotton cotyledon leaves were dipped in a test solution made up of the compound dissolved in acetone: Millipore water (2:1) at rates of 400 ppm to 1.56 ppm. Each cotyledon was placed individually on top of a moistened (distilled water) cotton ball in the bottom of a 1 oz plastic cup and allowed to dry (one hour). After drying, a single laboratory-reared second instar Heliothis virescens larva (mean weight 15 mg.) was placed on the treated leaf and the cup sealed with a lid, and held at 27° C. for four days. Percent mortality was determined at the end of the holding period.
# [4] = Heliothis virescens, rate 1.56 ppm, 96 h
# [5] = Heliothis virescens, rate 400 ppm, 96 h
molecule,measurement,setting,value
"5,6,22,23-tetrahydro-for-(3′,4′-methylenedioxyrham)-I [Compound A26]",Tobacco Budworm Typical (48 h) Mortality (%),[1]; in vivo,83%
"CC/C=C/[C@H]1CCC[C@H](OC2CC[C@H](N(C)C)[C@@H](C)O2)[C@@H](C)C(=O)C2=CC3C(C=CC4C[C@@H](O[C@@H]5O[C@@H](C)[C@H](OC)[C@@H](OC)[C@H]5OCC)CC43)C2CC(=O)O1 (stereo partly drawn) [Compound A1, for-(2′-O-ethylrham)-I]",mortality at 50 ppm,[2],87%
same,mortality at 1.56 ppm,[3]; [4],100%
"CC/C=C/[C@H]1CCC[C@H](OC2CC[C@H](N(C)C)[C@@H](C)O2)[C@@H](C)C(=O)C2=CC3C(C=CC4C[C@@H](O[C@@H]5O[C@@H](C)[C@H](OC)[C@@H](OCC)[C@H]5OC)CC43)C2CC(=O)O1 (stereo partly drawn) [Compound A2, for-(3′-O-ethylrham)-I]",mortality at 50 ppm,[2],97%
same,mortality at 1.56 ppm,[3]; [4],100%
same,Tobacco Budworm Typical (48 h) Mortality (%),[1]; in vivo,100%
"CC/C=C/[C@H]1CCC[C@H](OC2CC[C@H](N(C)C)[C@@H](C)O2)[C@@H](C)C(=O)C2=CC3C(C=CC4C[C@@H](O[C@@H]5O[C@@H](C)[C@H](OCC)[C@@H](OCC)[C@H]5OC)CC43)C2CC(=O)O1 (stereo partly drawn) [Compound A3, for-(3′,4′-bis-O-ethylrham)-I]",Tobacco Budworm Typical (48 h) Mortality (%),[1]; in vivo,67%
"CCOC(C)/C=C/[C@H]1CCC[C@H](OC2CC[C@H](N(C)C)[C@@H](C)O2)[C@@H](C)C(=O)C2=CC3C(C=CC4C[C@@H](O[C@@H]5O[C@@H](C)[C@H](OC)[C@@H](OC)[C@H]5OC)CC43)C2CC(=O)O1 (stereo partly drawn) [Compound A4, (24-O-thyl) for-rham-I]",mortality at 50 ppm,[2],99%
same,mortality at 400 ppm,[3]; [5],100%
"CC/C=C/[C@H]1CCC[C@H](OC2CC[C@H](N(C)C)[C@@H](C)O2)[C@@H](C)C(=O)C2=CC3C(C=CC4C3C[C@H](O[C@@H]3O[C@@H](C)[C@H](OC)[C@@H](OC)[C@H]3OC)[C@H]4OCC)C2CC(=O)O1 (stereo partly drawn) [Compound A5, (8-O-ethyl)-for-rham-III]",mortality at 50 ppm,[2],53%
same,mortality at 400 ppm,[3]; [5],100%
"CC/C=C/[C@H]1CCC[C@H](OC2CC[C@H](N(C)C)[C@@H](C)O2)[C@@H](C)C(=O)C2=CC3C(C=CC4C[C@@H](O[C@@H]5O[C@@H](C)[C@H](OC)[C@@H](OCCC)[C@H]5OC)CC43)C2CC(=O)O1 (stereo partly drawn) [Compound A6, for-(3′-O-n-propylrham)-I]",mortality at 50 ppm,[2],54%
same,Tobacco Budworm Typical (48 h) Mortality (%),[1]; in vivo,100%
"CCCC[C@H]1CCC[C@H](O[C@H]2CC[C@H](N(C)C)[C@@H](C)O2)[C@@H](C)C(=O)C2=CC3C4C[C@H](O[C@@H]5O[C@@H](C)[C@H](O)[C@@H](OC)[C@H]5OC)CC4CCC3C2CC(=O)O1 (stereo partly drawn) [Compound A14, 5,6,22,23-tetrahydro for-(4′-O-desmethylrham)-I]",mortality at 50 ppm,[2],92%
same,Tobacco Budworm Typical (48 h) Mortality (%),[1]; in vivo,83%
CCCCC1CCCC(OC2CCC(N(C)C)C(C)O2)C(C)C(=O)C2=CC3C4CC(OC5OC(C)C(OC)C(OCC)C5OC)CC4CCC3C2CC(=O)O1 (stereo not drawn) [Compound A15],Cotton Aphid mortality (72 h) Mortality (%),[2],100%
same,Tobacco Budworm Feeding (96 h) Mortality (%),[3]; rate 6.25 ppm,100%
CCCCC1CCCC(OC2CCC(N(C)C)C(C)O2)C(C)C(=O)C2=CC3C4CC(OC5OC(C)C(OC)C(OCCC)C5OC)CC4CCC3C2CC(=O)O1 (stereo not drawn) [Compound A16],Cotton Aphid mortality (72 h) Mortality (%),[2],100%
same,Tobacco Budworm Feeding (96 h) Mortality (%),[3]; rate 6.25 ppm,100%
CCCCOC1C(OC)C(C)OC(OC2CC3CCC4C5CC(=O)OC(CCCC)CCCC(OC6CCC(N(C)C)C(C)O6)C(C)C(=O)C5=CC4C3C2)C1OC (stereo not drawn) [Compound A17],Cotton Aphid mortality (72 h) Mortality (%),[2],100%
same,Tobacco Budworm Feeding (96 h) Mortality (%),[3]; rate 6.25 ppm,10%
same,Tobacco Budworm Typical (48 h) Mortality (%),"[1]; rate 1 µg/larva, 48 h",100%
CCCCCOC1C(OC)C(C)OC(OC2CC3CCC4C5CC(=O)OC(CCCC)CCCC(OC6CCC(N(C)C)C(C)O6)C(C)C(=O)C5=CC4C3C2)C1OC (stereo not drawn) [Compound A18],Cotton Aphid mortality (72 h) Mortality (%),[2],91%
same,Tobacco Budworm Feeding (96 h) Mortality (%),[3]; rate 1.56 ppm,20%
same,Tobacco Budworm Typical (48 h) Mortality (%),"[1]; rate 1 µg/larva, 48 h",33%
CCOC(C)C=CC1CCCC(OC2CCC(N(C)C)C(C)O2)C(C)C(=O)C2=CC3C(C=CC4CC(OC5OC(C)C(OC)C(OCC)C5OC)CC43)C2CC(=O)O1 (stereo not drawn) [Compound A19],Cotton Aphid mortality (72 h) Mortality (%),[2],99%
same,Tobacco Budworm Feeding (96 h) Mortality (%),[3]; rate 400 ppm,100%
CCCOC(C)C=CC1CCCC(OC2CCC(N(C)C)C(C)O2)C(C)C(=O)C2=CC3C(C=CC4CC(OC5OC(C)C(OC)C(OCCC)C5OC)CC43)C2CC(=O)O1 (stereo not drawn) [Compound A20],Cotton Aphid mortality (72 h) Mortality (%),[2],99%
same,Tobacco Budworm Feeding (96 h) Mortality (%),[3]; rate 400 ppm,100%
"CCCCOC(C)/C=C/C1CCC[C@H](O[C@H]2CC[C@H](N(C)C)[C@@H](C)O2)[C@@H](C)C(=O)C2=CC3C(C=CC4C[C@@H](O[C@@H]5O[C@@H](C)[C@H](OC)[C@@H](OCCCC)[C@H]5OC)CC43)C2CC(=O)O1 (stereo partly drawn) [Compound A21, (24-O-n-butyl)-for-(3′-O-n-butylrham)-I]",mortality at 50 ppm,[2],59%
same,mortality at 400 ppm,[3]; [5],100%
CCC=CC1CCCC(OC2CCC(N(C)C)C(C)O2)C(C)C(=O)C2=CC3C4CC(OC5OC(C)C(OC)C(OCC)C5OC)CC4CCC3C2CC(=O)O1 (stereo not drawn) [Compound A22],Cotton Aphid mortality (72 h) Mortality (%),[2],99%
same,Tobacco Budworm Feeding (96 h) Mortality (%),[3]; rate 400 ppm,100%
CCC=CC1CCCC(OC2CCC(N(C)C)C(C)O2)C(C)C(=O)C2=CC3C4CC(OC5OC(C)C(OC)C(OCCC)C5OC)CC4CCC3C2CC(=O)O1 (stereo not drawn) [Compound A23],Cotton Aphid mortality (72 h) Mortality (%),[2],100%
same,Tobacco Budworm Feeding (96 h) Mortality (%),[3]; rate 400 ppm,100%
CCC=CC1CCCC(OC2CCC(N(C)C)C(C)O2)C(C)C(=O)C2=CC3C4CC(OC5OC(C)C(OC)C(OCCCC)C5OC)CC4CCC3C2CC(=O)O1 (stereo not drawn) [Compound A24],Cotton Aphid mortality (72 h) Mortality (%),[2],99%
same,Tobacco Budworm Feeding (96 h) Mortality (%),[3]; rate 400 ppm,100%
CCOC(C)CCC1CCCC(OC2CCC(N(C)C)C(C)O2)C(C)C(=O)C2=CC3C4CC(OC5OC(C)C(OC)C(OC)C5OC)CC4CCC3C2CC(=O)O1 (stereo not drawn) [Compound A25],Cotton Aphid mortality (72 h) Mortality (%),[2],79%
same,Tobacco Budworm Typical (48 h) Mortality (%),"[1]; rate 1 µg/larva, 48 h",83%
CC=CC(CC(=O)OC)C1CCCC(OC2CCC(N(C)C)C(C)O2)C(C)C(=O)C2=CC3C(C=CC4CC(OC5OC(C)C(OC)C(OCC)C5OC)CC43)C2CC(=O)O1 (stereo not drawn) [Compound A27],Cotton Aphid mortality (72 h) Mortality (%),[2],33%
same,Tobacco Budworm Typical (48 h) Mortality (%),"[1]; rate 1 µg/larva, 48 h",100%
CC=CC(CC(=O)N(C)C)C1CCCC(OC2CCC(N(C)C)C(C)O2)C(C)C(=O)C2=CC3C(C=CC4CC(OC5OC(C)C(OC)C(OCC)C5OC)CC43)C2CC(=O)O1 (stereo not drawn) [Compound A28],Cotton Aphid mortality (72 h) Mortality (%),[2],48%
same,Tobacco Budworm Feeding (96 h) Mortality (%),[3]; rate 400 ppm,100%
"CCCCC1CCCC(OC2CCC(N(C)C)C(C)O2)C(C)C(=O)C2=CC3C4CC(OC5OC(C)C(OCC)C(OCC)C5OC)CC4CCC3C2CC(=O)O1 (stereo not drawn) [Compound B2, 5,6,22,23-tetrahydro-for-(3′,4′-bis-O-ethylrham)-I]",Cotton Aphid mortality (72 h) Mortality (%),[2],97%
same,Tobacco Budworm Typical (48 h) Mortality (%),"[1]; rate 1 µg/larva, 48 h",83%
"CCCC[C@H]1CCC[C@H](OC2CC[C@H](N(C)C)[C@@H](C)O2)[C@@H](C)C(=O)C2=CC3C4C[C@H](O[C@@H]5O[C@@H](C)[C@H](OC)[C@@H](OC)[C@H]5OC)CC4CCC3C2CC(=O)O1 (stereo partly drawn) [Compound B3, 5,6,22,23-tetrahydro-for-rham-I]",mortality at 50 ppm,[2],53%
same,mortality at 6.25 ppm,"[3]; Heliothis virescens, rate 6.25 ppm, 96 h",100%
same,Tobacco Budworm Typical (48 h) Mortality (%),[1]; in vivo,100%
COC1C(C)OC(OC2CC3CCC4C5CC(=O)OC(CCC(C)O)CCCC(OC6CCC(N(C)C)C(C)O6)C(C)C(=O)C5=CC4C3C2)C(OC)C1OC (stereo not drawn) [Compound B17],Cotton Aphid mortality (72 h) Mortality (%),[2],11%
same,Tobacco Budworm Typical (48 h) Mortality (%),"[1]; rate 1 µg/larva, 48 h",17%
"CC/C=C/[C@H]1CCC[C@H](OC2CC[C@H](N(C)C)[C@@H](C)O2)[C@@H](C)C(=O)C2=CC3C4C[C@H](O[C@@H]5O[C@@H](C)[C@H](OC)[C@@H](OC)[C@H]5OC)CC4C4OC4C3C2CC(=O)O1 (stereo partly drawn) [Compound C1, 5,6-epoxy-for-rham-I]",mortality at 50 ppm,[2],95%
same,mortality at 400 ppm,[3]; [5],100%
CCC=CC1CCCC(OC2CCC(N(C)CC)C(C)O2)C(C)C(=O)C2=CC3C(C=CC4CC(OC5OC(C)C(OC)C(OC)C5OC)CC43)C2CC(=O)O1 (stereo not drawn) [Compound D1],Tobacco Budworm Typical (48 h) Mortality (%),"[1]; rate 1 µg/larva, 48 h",83%
"CC/C=C/C1CCC[C@H](O[C@H]2CC[C@H](N(C)C=O)[C@@H](C)O2)[C@@H](C)C(=O)C2=CC3C(C=CC4C[C@@H](O[C@@H]5O[C@@H](C)[C@H](OC)[C@@H](OC)[C@H]5OC)CC43)C2CC(=O)O1 (stereo partly drawn) [Compound D4, (N-formyl)-for-rham-I]",mortality at 50 ppm,[2],92%
same,mortality at 400 ppm,[3]; [5],100%
CCC=CC1CCCC(OC2CCC(N(C)C(C)=O)C(C)O2)C(C)C(=O)C2=CC3C(C=CC4CC(OC5OC(C)C(OC)C(OC)C5OC)CC43)C2CC(=O)O1 (stereo not drawn) [Compound D5],Cotton Aphid mortality (72 h) Mortality (%),[2],92%
same,Tobacco Budworm Feeding (96 h) Mortality (%),[3]; rate 400 ppm,100%
